The text below walks through data of ChEMBL document CHEMBL1147328, “13C-NMR assignments and cytotoxicity assessment of zoanthoxanthin alkaloids from zoanthid corals” (J Nat Prod, 1993).

As a reminder, the IC50 is the concentration that inhibits the measured activity by half.

In brackets after ≈: the same amount, converted by molar mass.

Assay type in all cases: functional, cell-based
One assay deals with A549. Briefly: Cytotoxicity against human A549 cells.
For the next assay, the system named is P388. Briefly: Cytotoxicity against mouse P388 cells.
The subject of the next assay is HCT-8. Briefly: Cytotoxicity against human HCT8 cells.
The next assay concerns HT-29. Briefly: Cytotoxicity against human HT-29 cells.

Take `CNc1nc2c(C)ccc3nc(N(C)C)nc-3c2n1C`: the IC50 with A549 worked out at 2.38 µg/mL (≈ 8.8 µM); in the assay with P388 it was 1.77 µg/mL (≈ 6.55 µM); in the assay on HCT-8 it was 1.61 µg/mL (≈ 5.96 µM); in the assay with HT-29, 0.824 µg/mL (≈ 3.05 µM).
